Test results: patent publication US8313777B2, “Water-dispersible oral, parenteral, and topical formulations for poorly water soluble drugs using smart polymeric nanoparticles” (The Johns Hopkins University, priority 2006, dated 2012)

Experiments:
[1] = Solubilization in water, visual (turbidity, floating particles vs transparent solution); type: physicochemical; conditions: equivalent amounts of free and nanoparticle-encapsulated drug
[2] = Blood levels of rapamycin 2 hours after oral delivery (HPLC); type: in vivo, C57/B6 wild type mice; conditions: 15 mg/kg rapamycin or equivalent, 2 hours post delivery
Source text: FIG. 10 illustrates blood levels of rapamycin following oral delivery of polymeric nanoparticles. Rapamycin was encapsulated in nanoparticles comprised of increasing order of acrylic acid (AA) percentage in the co-polymeric composition. The nanoparticles were either administered as is, or after surface PEGylation. Compared are: Control A (rapamycin suspended in water); rapamycin nanoparticle comprised of NIPAAM:VP:AA in a ratio of 60:30:10 (designated as NVA631); rapamycin nanoparticle comprised of NIPAAM:VP:AA in a ratio of 60:20:20 (designated as NVA622); rapamycin nanoparticle comprised of NIPAAM:VP:AA in a ratio of 60:10:30 (designated as NVA613); and rapamycin nanoparticle comprised of NIPAAM:MMA:AA in a ratio of 60:20:20 (designated as NMA622). The corresponding PEGylated nanoparticles (PEG-NVA-631, PEG-NVA-622, PEG-NVA-613, and PEG-NMA-622) encapsulating rapamycin are designated as shaded bars. […] Blood levels are measured by HPLC from samples obtained at 2 hours post oral delivery.
Rapamycin is a poorly water soluble drug that has low oral bioavailability. […] At 2 hours post oral administration, the mice were bled and rapamycin concentrations in the blood were determined by high performance liquid chromatography (HPLC). […]

[3] = test system: BxPC3 human pancreatic cancer cell line; experiment: In vitro cell viability (MTT) assay, BxPC3; type: cell-based; conditions: increasing dosages, 96 hours
Source text: In the illustrated example, NIPAAM/VP/AA polymeric nanoparticles in molar ratio of 60:20:20 were used for paclitaxel encapsulation. […] Also included as control in each condition were void polymeric nanoparticle equal to the amount required for encapsulating said dose of nanopaclitaxel (white bar) and solvent (dimethylsulfoxide [DMSO], blue bar) equal to the amount required for dissolving said dose of free paclitaxel. […] Thus, nano-encapsulation of the drug is not associated with loss of drug activity. […] All assays were performed in triplicate and error bars represent standard deviations.
FIG. 9 illustrates in vitro cell viability (MTT assay) performed using the water-soluble drug gemcitabine conjugated to the acrylic acid (AA) surface reactive functional group of polymeric nanoparticle. Unlike the poorly water drugs that are encapsulated within the nanoparticle, water soluble drugs like gemcitabine can be conjugated to the nanoparticle surface, rendering this compound amenable to oral delivery. Human pancreatic cancer cell line BxPC3 is incubated with increasing dosages of either free gemcitabine (black bar), nano-gemcitabine (white bar), void polymer (grey bar), or PBS solvent (patterned bar). UT=untreated. […] All assays were performed in triplicate and means and standard deviations are plotted. […]

| Compound | solubility in water (appearance of solution) [1] | blood level of rapamycin [2] | activity in cell viability assay, free vs nano-gemcitabine [3] |
| --- | --- | --- | --- |
| CC(=O)O[C@H]1C(=O)[C@@]2(C)[C@H]([C@H](OC(=O)c3ccccc3)[C@]3(O)C[C@H](OC(=O)[C@H](O)[C@@H](NC(=O)c4ccccc4)c4ccccc4)C(C)=C1C3(C)C)[C@]1(OC(C)=O)CO[C@@H]1C[C@@H]2O [free paclitaxel, paclitaxel] | essentially insoluble in water | – | – |
| CO[C@H]1C[C@@H]2CC[C@@H](C)[C@@](O)(O2)C(=O)C(=O)N2CCCC[C@H]2C(=O)O[C@H]([C@H](C)C[C@@H]2CC[C@@H](O)[C@H](OC)C2)CC(=O)[C@H](C)/C=C(\C)[C@@H](O)[C@@H](OC)C(=O)[C@H](C)C[C@H](C)/C=C/C=C/C=C/1C [free rapamycin, rapamycin] | essentially insoluble in water | essentially undetectable | – |
| CO[C@H]1/C=C/O[C@@]2(C)Oc3c(C)c(O)c4c(O)c(c(/C=N/N5CCN(C)CC5)c(O)c4c3C2=O)NC(=O)/C(C)=C\C=C\[C@H](C)[C@H](O)[C@@H](C)[C@@H](O)[C@@H](C)[C@H](OC(C)=O)[C@@H]1C [free rifampicin, rifampicin] | essentially insoluble in water | – | – |
| Nc1ccn([C@@H]2O[C@H](CO)[C@@H](O)C2(F)F)c(=O)n1 [free gemcitabine, gemcitabine] | – | – | comparable activity |
